Source: patent US20070135515A1, “Method for producing sorbicillactone a” (priority 2004, published 2007)

System: L5178Y-mouse lymphoma cells (ATCC CRL 1722)
Assay: Apoptosis detection (Cell Death Detection ELISA plus)
Type: cell-based
Settings: for MW ± SD (OD) / % of the control (negative): 4 hours incubation; for MW ± SD (OD): 405 nm; for % of the control (negative): negative control = 100%
Protocol: Material: RPMI1640-medium, Hepes buffered, was obtained from Sigma-Aldrich (Taufkirchen, Germany), foetal calf serum (FCS) from Gibco (Karlsruhe, Germany), and Cell Death Detection ELISA plus from Roche (Mannheim, Germany, Cat. No. 1774425). Sorbicillactone A of the batch: 2208/2a was used.
Incubation and preparation of the cells: The L5178Y-mouse lymphoma cells (ATCC CRL 1722)) were counted, and adjusted to a number of cells of 10^4 cells/mL. The sorbicillactone-A- and dihydrosorbicillactone-A-stock solution (10 mg/mL in DMSO) was diluted with medium (RPMI/Hepes with 10% FCS) to concentrations of 60, 20, and 6 μg/mL. In a 96-well-culture plate, 100 μl cell suspension (˜10^3 cells) were each pipetted to each of the 100 μl of the different dihydrosorbicillactone-A- and sorbicillactone-A-solutions. RPMI1640-medium without dihydrosorbicillactone and sorbicillactone A was used as a negative control. The final concentrations were 30, 10, and 3 μg/mL sorbicillactone A and dihydrosorbicillactone A. Four parallel settings of each sample were analysed. The cells were incubated for 4 hours at 37° C. After the incubation, the culture plate was centrifuged at […] (˜1200 rpm) for 10 min at room temperature. The supernatant was carefully pipetted off, and the cells were each overlayered with 200 μl lysis-buffer (Roche-Kit). Then, the cells were lysed for 30 min at room temperature. After the lysis, the culture plate was again centrifuged at 200×g (˜1200 rpm) for 10 min at room temperature.
ELISA: Two strips with eight wells each were taken from the streptavidin-ELISA-plate of the Roche-kit. 20 μl of the supernatant of a cell-lysis (see above) were added into each well. In doing so, the samples with 30 or 10 μg/mL of sorbicillactone A and dihydrosorbicillactone A were loaded as 4-fold, and all other as duplicate determinations. In addition to these sample, a positive control (DNA-histone-complex) was loaded. Then, 80 μl of immune reagent were added into each well. This solution consisted of incubation buffer, anti-histone-biotin, and anti-DNA-peroxidase. The incubation buffer was used as a blank value. The ELISA-plate was incubated for 2 hours in a shaking incubator at room temperature. Them the supernatants were carefully removed, and the wells were each washed 3× with 250 μl of the incubation buffer. After the washing, 100 μl of ABTS-solution were added into each “well”. Subsequently, the cells were incubated for 30 min in the dark at room temperature. The measurement took place in a multiscan at an emission wavelength of 405 nm.

C/C=C/C=C/C(O)=C1/C(=O)C(C)=C(O)[C@@]2(C)OC(=O)[C@@](C)(NC(=O)/C=C/C(=O)O)[C@@H]12 [sorbicillactone A]
MW ± SD (OD) (3 μg/mL): 0.062 ± 0.004 OD | % of the control (negative) (3 μg/mL): 91.2% | increase of apoptosis-cells (3 μg/mL, 4 hours of incubation): did not result in an increase of apoptosis-cells | MW ± SD (OD) (10 μg/mL): 0.193 ± 0.010 OD | % of the control (negative) (10 μg/mL): 283.8% | MW ± SD (OD) (30 μg/mL): 0.219 ± 0.024 OD | % of the control (negative) (30 μg/mL): 322.1% | induction of apoptosis (10 and 30 μg/mL, 4 hours of incubation): induces apoptosis
